Data: patent US7759367B2, “Pharmaceutical compositions and their uses” (Eisai R&D Management Co., Ltd., priority 2001, dated 2010)
Where two headings read alike, the source gives them in different places.

Legend:
male mice of ddy strain = experiment: Anticonvulsant action induced by AMPA (Test Example 2); type: in vivo; conditions: 25 mg/kg orally, AMPA 2 nmole/5 μl/minute/mouse into lateral ventricle 30 minutes or 1 hour after dosing
Protocol: A test compound was suspended in a 0.5% methyl cellulose solution or in sesame oil and was orally administered (25 mg/kg) to male mice of ddy strain. After 30 minutes or 1 hour from the oral administration, AMPA was continuously injected (2 nmole/5 μl/minute/mouse) into lateral ventricle to induce the convulsions. The effect was judged by a time-extending action until the convulsion takes place by a continuous injection of AMPA.

[1] = primary culture of rat embryo cerebral cortex nerve cells, Fura2-AM, 2 μM AMPA, 1 μM MK-801
[2] = suppression of AMPA-induced calcium influx into nerve cells, Table 2
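Wherever IC50 is given: neurons cultured at least 8 to 10 days atop an astrocyte layer in 96-well plates, calcium entry read as the change in Fura2 fluorescence ratio at 340/380 nm excitation.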

Protocol for AMPA receptor: Cerebral cortex was cut out from the brain of rat of gestational 18 days and treated with trypsin and DNase to disperse the cells. The cells were flown by MEM containing 10% of serum, sown in a culture bottle and astrocytes were proliferated. The astrocytes were re-dispersed by trypsin and sown in a 96-well plate. After incubation for one week, it was confirmed that the astrocytes covered all over the bottom and then the nerve cells of cerebral cortex which was dispersed by the above method were sown thereupon. After incubation for 24 hours, the medium was changed, the incubation was carried out for one week and, after that, the medium was changed to that containing 1 μM of MK-801. Nerve cells which were incubated for not shorter than 8 to 10 days were used.
Calcium influx into the cells was measured using Fura2-AM which was a calcium-sensitive fluorescent dye. It was treated in a medium containing Fura2-AM for 1 hour, incorporated into the cells, exchanged to a Tyrode solution containing 1 μM MK-801 and stimulation was carried out using 2 μM AMPA. Change in the amount of calcium flown into the cells were measured as the change in the fluorescent intensity at the exciting wave length of 340/380 nm.

SMILES	IC50 (AMPA receptor; [1]) [nM]	further results
N#Cc1ccccc1-c1cc(-c2ccccn2)cn(-c2cccc(O)c2)c1=O [Example 315, 3-(2-Cyanophenyl)-1-(3-hydroxyphenyl)-5-(2-pyridyl)-1,2-dihydropyridin-2-one]	80	–
N#Cc1ccccc1-c1cc(-c2cccc(N)n2)cn(-c2ccccc2)c1=O [Example 298, 5-(2-Aminopyridin-6-yl)-3-(2-cyanophenyl)-1-phenyl-1,2-dihydropyridin-2-one]	–	Anticonvulsant action (time-extending action until convulsion by continuous AMPA injection) (male mice of ddy strain): significant anticonvulsant action
CNC(=O)c1cccc(-n2cc(-c3ccccn3)cc(-c3ccccc3C#N)c2=O)c1 [Example 15, 3-(2-Cyanophenyl)-5-(2-pyridyl)-1-(3-methylaminocarbonylphenyl)-1,2-dihydropyridin-2-one]	50	–
O=c1c(-c2cccnc2F)cc(-c2ncccn2)cn1-c1cccnc1 [Example 263, 3-(2-Fluoropyridin-3-yl)-1-(3-pyridyl)-5-(2-pyrimidinyl)-1,2-dihydropyridin-2-one]	–	IC50 (AMPA receptor; [2]): 1000 nM
N#Cc1ccccc1-c1cc(-c2ccccn2)cn(-c2cccc(F)c2)c1=O [Example 92, 3-(2-Cyanophenyl)-5-(2-pyridyl)-1-(3-fluorophenyl)-1,2-dihydropyridin-2-one]	50	–
COc1ccc(-n2cc(-c3ccccn3)cc(-c3ccccc3C#N)c2=O)cn1 [Example 109, 3-(2-Cyanophenyl)-5-(2-pyridyl)-1-(2-methoxypyridin-5-yl)-1,2-dihydropyridin-2-one]	10	–
N#Cc1ccccc1-c1cc(-c2ccccn2)cn(-c2ccsc2)c1=O [Example 105, 3-(2-Cyanophenyl)-5-(2-pyridyl)-1-(thiophen-3-yl)-1,2-dihydropyridin-2-one]	30	–
N#Cc1cccnc1-c1cc(-c2ccccc2)cn(-c2cccnc2)c1=O [Example 79, 3-(3-Cyano-2-pyridyl)-5-phenyl-1-(3-pyridyl)-1,2-dihydropyridin-2-one]	2600	–
N#Cc1ccccc1-c1cc(-c2ccccc2)cn(-c2cccnc2)c1=O [Example 47, 3-(2-Cyanophenyl)-5-phenyl-1-(3-pyridyl)-1,2-dihydropyridin-2-one]	–	Anticonvulsant action (time-extending action until convulsion by continuous AMPA injection) (male mice of ddy strain): significant anticonvulsant action
O=c1c(-c2ccccc2Cl)cc(-c2ccccn2)cn1-c1cccnc1 [Example 128, 3-(2-Chlorophenyl)-5-(2-pyridyl)-1-(3-pyridyl)-1,2-dihydropyridin-2-one]	–	Anticonvulsant action (time-extending action until convulsion by continuous AMPA injection) (male mice of ddy strain): significant anticonvulsant action
N#Cc1ccccc1-c1cc(-c2ccccn2)cn(-c2ccc(C(F)(F)F)cc2)c1=O [Example 108, 3-(2-Cyanophenyl)-5-(2-pyridyl)-1-(4-trifluoromethylphenyl)-1,2-dihydropyridin-2-one]	30	–
Cc1cccc(-n2cc(-c3ccccn3)cc(-c3ccccc3C#N)c2=O)c1 [Example 103, 3-(2-Cyanophenyl)-5-(2-pyridyl)-1-(3-tolyl)-1,2-dihydropyridin-2-one]	30	–
N#Cc1ccccc1-c1cc(-c2ccccn2)cn(-c2cccc([N+](=O)[O-])c2)c1=O [Example 8, 3-(2-Cyanophenyl)-5-(2-pyridyl)-1-(3-nitrophenyl)-1,2-dihydropyridin-2-one]	100	–
O=c1c(-c2cc3ccccc3n2S(=O)(=O)c2ccccc2)cc(-c2ccccn2)cn1-c1ccccc1 [Example 293, 3-(1-Benzenesulfonylindol-2-yl)-1-phenyl-5-(2-pyridyl)-1,2-dihydropyridin-2-one]	–	IC50 (AMPA receptor; [2]): 3300 nM
N#Cc1ccccc1-c1cc(-c2ccccn2)cn(-c2cccc(OCCCN3CCCCC3)c2)c1=O [Example 244, 3-(2-Cyanophenyl)-1-(3-piperidinopropoxyphenyl)-5-(2-pyridyl)-1,2-dihydropyridin-2-one]	–	IC50 (AMPA receptor; [2]): 1800 nM
CSc1ccc(-n2cc(-c3ccccn3)cc(-c3ccccc3C#N)c2=O)cc1 [Example 26, 3-(2-Cyanophenyl)-5-(2-pyridyl)-1(4-methylthiophenyl)-1,2-dihydropyridin-2-one]	20	–
COc1cccc(-n2cc(-c3ccccn3)cc(-c3ccccc3C#N)c2=O)c1 [Example 96, 3-(2-Cyanophenyl)-5-(2-pyridyl)-1-(3-methoxyphenyl)-1,2-dihydropyridin-2-one]	60	–
N#Cc1ccccc1-c1cc(-c2ccccn2)cn(-c2cccc(C=O)c2)c1=O [Example 20, 3-(2-Cyanophenyl)-5-(2-pyridyl)-1-(3-formylphenyl)-1,2-dihydropyridin-2-one]	40	–
CS(=O)(=O)Nc1cccc(-n2cc(-c3ccccn3)cc(-c3ccccc3C#N)c2=O)c1 [Example 10, 3-(2-Cyanophenyl)-5-(2-pyridyl)-1-(3-methylsulfonylaminophenyl)-1,2-dihydropyridin-2-one]	50	–
N#Cc1ccccc1-c1cc(-c2ccccn2)cn(-c2ccoc2)c1=O [Example 106, 3-(2-Cyanophenyl)-5-(2-pyridyl)-1-(3-furyl)-1,2-dihydropyridin-2-one]	70	–

SMILES	IC50 (AMPA receptor; [1]) [nM]	further results
COc1cncc(-n2cc(-c3ccccn3)cc(-c3ccccc3C#N)c2=O)c1 [Example 118, 3-(2-Cyanophenyl)-5-(2-pyridyl)-1-(3-methoxypyridin-5-yl)-1,2-dihydropyridin-2-one]	100	–
O=c1c(-c2ccccc2Cl)cc(-c2ccccn2)cn1-c1ccccc1 [Example 57, 3-(2-Chlorophenyl)-5-(2-pyridyl)-1-phenyl-1,2-dihydropyridin-2-one]	–	Anticonvulsant action (time-extending action until convulsion by continuous AMPA injection) (male mice of ddy strain): significant anticonvulsant action
COc1ccccc1-n1cc(-c2ccccn2)cc(-c2ccccc2C#N)c1=O [Example 126, 3-(2-Cyanophenyl)-5-(2-pyridyl)-1-(2-methoxyphenyl)-1,2-dihydropyridin-2-one]	–	Anticonvulsant action (time-extending action until convulsion by continuous AMPA injection) (male mice of ddy strain): significant anticonvulsant action
CNc1cccc(-n2cc(-c3ccccn3)cc(-c3ccccc3C#N)c2=O)c1 [Example 11, 3-(2-Cyanophenyl)-5-(2-pyridyl)-1-(3-methylaminophenyl)-1,2-dihydropyridin-2-one]	60	–
N#CCc1cccc(-n2cc(-c3ccccn3)cc(-c3ccccc3C#N)c2=O)c1 [Example 22, 3-(2-Cyanophenyl)-5-(2-pyridyl)-1-(3-cyanomethylphenyl)-1,2-dihydropyridin-2-one]	60	–
O=c1c(-c2cccnc2Cl)cc(-c2ccccn2)cn1-c1ccccc1 [Example 4, 3-(2-Chloro-3-pyridyl)-5-(2-pyridyl)-1-phenyl-1,2-dihydropyridin-2-one]	–	Anticonvulsant action (time-extending action until convulsion by continuous AMPA injection) (male mice of ddy strain): significant anticonvulsant action
Cc1ccc(-n2cc(-c3ccccn3)cc(-c3ccccc3C#N)c2=O)cc1 [Example 107, 3-(2-Cyanophenyl)-5-(2-pyridyl)-1-(4-tolyl)-1,2-dihydropyridin-2-one]	70	–
COc1ccc(-c2cc(-c3ccccn3)cn(-c3ccccc3)c2=O)cn1 [Example 77, 3-(2-Methoxy-5-pyridyl)-5-(2-pyridyl)-1-phenyl-1,2-dihydropyridin-2-one]	20	–
N#Cc1ccccc1-c1cc(-c2ccccn2)cn(-c2cccc(Cl)c2)c1=O [Example 102, 3-(2-Cyanophenyl)-5-(2-pyridyl)-1-(3-chlorophenyl)-1,2-dihydropyridin-2-one]	20	–
CS(=O)(=O)c1ccc(-n2cc(-c3ccccn3)cc(-c3ccccc3C#N)c2=O)cc1 [Example 27, 3-(2-Cyanophenyl)-5-(2-pyridyl)-1-(4-methylsulfonylphenyl)-1,2-dihydropyridin-2-one]	50	–
CC1=NN=C(c2ccc(N)cc2)c2cc3c(cc2C1)OCO3 [GYKI 52466, reference compound]	9020	–
COc1ccc(-c2cc(-c3ccccc3C#N)c(=O)n(-c3ccccc3)c2)cn1 [Example 200, 3-(2-Cyanophenyl)-5-(2-methoxypyridin-5-yl)-phenyl-1,2-dihydropyridin-2-one]	–	IC50 (AMPA receptor; [2]): 2000 nM
COc1ccc(-n2cc(-c3ccccn3)cc(-c3cccnc3F)c2=O)cn1 [Example 86, 3-(2-Fluoro-3-pyridyl)-5-(2-pyridyl)-1-(2-methoxy-5-pyridyl)-1,2-dihydropyridin-2-one]	1900	–
COC(=O)c1cccc(-n2cc(-c3ccccn3)cc(-c3ccccc3C#N)c2=O)c1 [Example 14, 3-(2-Cyanophenyl)-5-(2-pyridyl)-1-(3-methoxycarbonylphenyl)-1,2-dihydropyridin-2-one]	100	–
N#Cc1ccccc1-c1cc(-c2ccccn2)c(=O)n(-c2ccccc2)c1 [Example 33, 3-(2-Pyridyl)-5-(2-cyanophenyl)-1-phenyl-1,2-dihydropyridin-2-one]	700	–
O=c1c(-c2cccc3ccccc23)cc(-c2ccccn2)cn1-c1cccnc1 [Example 279, 3-(1-Naphthyl)-5-(2-pyridyl)-1-(3-pyridyl)-1,2-dihydropyridin-2-one]	–	IC50 (AMPA receptor; [2]): 3710 nM
N#Cc1ccccc1-c1cc(-c2ccccn2)cn(-c2cccc(CO)c2)c1=O [Example 21, 3-(2-Cyanophenyl)-5-(2-pyridyl)-1-(3-hydroxymethylphenyl)-1,2-dihydropyridin-2-one]	30	–
O=c1c(C2C3CC4CC(C3)CC2C4)cc(-c2ccccn2)cn1-c1ccccc1 (stereo not shown) [Example 387, 3-(2-Adamantyl)-5-(2-pyridyl)-1-phenyl-1,2-dihydropyridin-2-one]	7000	–
O=c1c(-c2ccc(Cl)cc2Cl)cc(-c2ccccn2)cn1-c1cccnc1 [Example 131, 3-(2,4-Dichlorophenyl)-5-(2-pyridyl)-1-(3-pyridyl)-1,2-dihydropyridin-2-one]	37000	–
N#Cc1ccccc1-c1cc(-c2ccccn2)cn(-c2ccc(N)cc2)c1=O [Example 215, 1-(4-Aminophenyl)-3-(2-cyanophenyl)-5-(2-pyridyl)-1,2-dihydropyridin-2-one]	–	IC50 (AMPA receptor; [2]): 100 nM
